Measurements taken from publication PMC12081876, “Identification of PTGR2 inhibitors as a new therapeutic strategy for diabetes and obesity” (EMBO Molecular Medicine, 2025).
Values joined by “and” are separate entries in the source; they are usually repeats but may differ in a detail not shown here. Equal entries are not always repeated.

How the values were obtained:
hPTGR2 = hPTGR2 (Homo sapiens, UniProt Q8N8N7); experiment: Enzyme kinetics (Lineweaver–Burk) of hPTGR2 with 15-keto-PGE2; type: biochemical; set-up: made in house
wild-type mPPARγ = biological target: T1, wild-type mPPARγ (Mus musculus, UniProt P37238); experiment: PPRE reporter assay in HEK293T cells, wild-type mPPARγ; type: cell-based, murine; set-up: key to PPRE reporter activity, Fig 1M replicates: luciferase activity normalized to TK reporter signal; settings: for PPRE reporter activity, Fig 1M replicates: PPARg WT
T1 construct: host or cells: HEK293T
T1 sequence (P37238 1-505): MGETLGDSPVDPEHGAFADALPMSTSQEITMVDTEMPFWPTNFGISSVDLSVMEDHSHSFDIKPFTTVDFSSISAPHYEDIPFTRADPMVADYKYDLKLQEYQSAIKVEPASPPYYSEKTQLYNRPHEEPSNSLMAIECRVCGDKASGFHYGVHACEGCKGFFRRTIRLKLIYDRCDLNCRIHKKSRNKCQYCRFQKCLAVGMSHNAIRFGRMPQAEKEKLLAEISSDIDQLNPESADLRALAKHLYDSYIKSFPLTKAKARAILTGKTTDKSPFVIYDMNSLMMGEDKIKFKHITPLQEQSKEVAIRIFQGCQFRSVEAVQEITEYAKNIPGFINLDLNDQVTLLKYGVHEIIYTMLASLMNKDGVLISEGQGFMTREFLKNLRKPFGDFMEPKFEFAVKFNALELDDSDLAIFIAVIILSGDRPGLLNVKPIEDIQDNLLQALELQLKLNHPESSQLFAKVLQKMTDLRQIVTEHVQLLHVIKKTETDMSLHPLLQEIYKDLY
Procedure: For PPRE reporter assay, HEK293T cells were seeded in 24-well plates at 1 × 10^5 cells/well. […] The luciferase activity was measured by Luc-Pair™ Duo-Luciferase HS Assay Kit (cat. no. LF600, Promega, USA) and normalized to the TK reporter signal.

[1] = system: HFHSD-fed obese C57BL6/J mice; experiment: Tissue weights (fat pads, liver, BAT); type: in vivo, mouse; set-up: Inguinal fat weight (Figure 5N): unit not given here
[2] = system: PPARγ-null 3T3-L1 clones rescued with mutant mPPARγ (C313A); experiment: Insulin-stimulated glucose uptake in PPARγ-null 3T3-L1 clones rescued with mutant mPPARγ (C313A); type: cell-based, mouse; settings: for insulin-stimulated glucose uptake, Fig 1P right panel replicates: rescued with mPPARγ C313A
Procedure: Gene editing was performed in 3T3-L1 preadipocytes using the clustered regularly interspaced short palindromic repeats (CRISPR)/Cas9 system. Two single-guide RNAs (sgRNA) (Appendix Table S5) targeting exon 6 of mouse Pparγ were designed using a web-based design tool (http://crispr.mit.edu/). These oligonucleotides were cloned into the pSurrogate reporter and pAll-Cas9.Ppuro vector obtained from Academia Sinica, Taiwan. The pSurrogate reporter contains an EGFP and an out-of-frame mCherry downstream of the sgRNA; the pAll-Cas9.Ppuro vector expresses Cas9 nuclease and sgRNA. Once a double-strand breaking at the target site in pSurrogate reporter plasmid was created by Cas9, insertions and deletions (indels) could be introduced at the cleaved site. The indels cause frameshifts and result in the expression of the mCherry gene. 3T3-L1 preadipocytes were co-transfected with pSurrogate reporter and pAll-Cas9.Ppuro vectors at 80-90% confluency using PolyJet™ transfection reagent (cat. no. SL100688, SignaGen Laboratories, USA). Two days after transfection, EGFP/mCherry double-positive cells were enriched by fluorescent-activated cell sorting. Single cells were isolated and expanded. The genomic DNA was amplified by PCR and sequenced to confirm the knockout cell lines. The primer sequences are shown in Appendix Table S5.
The mPPARγ C313A DNA sequence was amplified from pCMV6-Pparg C313A and subcloned into the pLVX-IRES-Neo vector with XhoI/NotI restriction sites. The lentiviral expression plasmids, pMD.G, and pCMVΔR8.91 (RNAi Core, Academia Sinica, Taiwan), were co-transfected into HEK293T cells. […] HSP70 was probed with an anti-HSP70 antibody (cat. no. ab45133, Abcam) as a loading control.
Differentiated 3T3-L1 cells were starved with serum-free DMEM containing 0.2% BSA (cat. no. A9647, Sigma-Aldrich). […] Uptake of 2DG was terminated by rapidly removing medium and washing with ice-cold PBS three times. Cells were lysed with 0.1% SDS, and the radioactivity was measured using a liquid scintillation counter. Insulin-mediated glucose uptake was calculated by subtracting insulin-treated glucose uptake with basal glucose uptake.

[3] = system: HFHSD-fed obese C57BL6/J mice; experiment: Body composition (fat mass, lean mass, free water, total water); type: in vivo, mouse; set-up: Fat mass (Figure 5O) / lean mass (Figure 5O) / Free fluid (Figure 5O): unit not given beside the values; settings: for body composition: fat mass / fluid retention (body composition): vs vehicle
[4] = Figure 2J, individual mice, listed as 15kPGE2, in g (unit assumed)
[5] = 40 mg/kg/day ip, 3 weeks, HFHSD-fed mice
[6] = 40 mg/kg/day ip, HFHSD-fed mice, listed as 15kPGE2
[7] = individual animals, in g (unit assumed)
[8] = 100 mg/kg/day oral, HFHSD-fed mice

hPTGR2, sequence (Q8N8N7 whole entry): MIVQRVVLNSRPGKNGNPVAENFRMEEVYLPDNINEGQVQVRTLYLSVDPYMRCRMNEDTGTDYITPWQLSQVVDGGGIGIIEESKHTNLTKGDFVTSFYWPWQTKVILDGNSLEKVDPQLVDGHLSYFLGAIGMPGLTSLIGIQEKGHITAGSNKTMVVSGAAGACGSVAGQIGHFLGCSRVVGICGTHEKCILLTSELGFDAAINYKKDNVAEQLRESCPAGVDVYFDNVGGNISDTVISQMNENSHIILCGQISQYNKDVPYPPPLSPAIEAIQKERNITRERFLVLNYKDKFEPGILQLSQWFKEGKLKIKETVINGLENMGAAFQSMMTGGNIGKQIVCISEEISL

## CCCCCC(=O)/C=C/[C@H]1[C@H](O)CC(=O)[C@@H]1C/C=C\CCCC(=O)O [15-keto-PGE2, 15-keto-prostaglandin E2]
hPTGR2; read-out: Km between 15-keto-PGE2 and hPTGR2, without BPRPT0245
  Km: 29.1 ± 0.77 µM
wild-type mPPARγ; 15kPGE2 1uM
  PPRE reporter activity, Fig 1M replicates: 0.8257 and 0.8644 and 0.9986
wild-type mPPARγ; 15kPGE2 5uM
  PPRE reporter activity, Fig 1M replicates: 1.6663 and 1.771 and 1.8768
wild-type mPPARγ; 15kPGE2 10uM
  PPRE reporter activity, Fig 1M replicates: 2.316 and 1.9846 and 1.9282
wild-type mPPARγ; HEK293T
  PPRE reporter activity, wild-type mPPARγ: dose-dependently increases the reporter activity of PPARγ
[1]; 40 mg/kg/day ip, 3 weeks, HFHSD-fed mice, vs vehicle
  White fat mass: reduced
[1]; [4]
  BAT weight: 0.1049 and 0.0893 and 0.0681 and 0.1024 and 0.0901 and 0.0904 and 0.0815 and 0.0934 and 0.1303 and 0.0871 and 0.1289 and 0.0981 and 0.1279
  gonadal fat weight: 1.0948 and 0.4418 and 0.5418 and 0.586 and 0.6631 and 0.6417 and 0.7873 and 0.8763 and 0.4217 and 0.3751 and 0.7101 and 0.437 and 1.2399 and 1.5271
  inguinal fa (inguinal fat weight): 0.5361 and 0.3262 and 0.2899 and 0.5695 and 0.44 and 0.4775 and 0.4155 and 0.4527 and 0.3306 and 0.2941 and 0.47 and 0.5739 and 0.6454 and 0.6994
  liver weight: 1.4646 and 1.5001 and 1.364 and 1.198 and 1.291 and 1.4569 and 1.3602 and 1.5387 and 1.535 and 1.2853 and 1.4911 and 1.7319 and 1.4367 and 1.4078
  mesneteric fat weight: 0.4239 and 0.1584 and 0.1617 and 0.203 and 0.2549 and 0.1777 and 0.3522 and 0.3152 and 0.191 and 0.1812 and 0.1041 and 0.3498 and 0.3664 and 0.5006
[2]; 15kPGE2 1
  insulin-stimulated glucose uptake, Fig 1P right panel replicates: 0.9792 and 1.801 and 3.6878 and 1.466
[2]; 15kPGE2 5
  insulin-stimulated glucose uptake, Fig 1P right panel replicates: 0.4664 and 1.615 and 2.026 and 0.6338
[2]; 15kPGE2 10
  insulin-stimulated glucose uptake, Fig 1P right panel replicates: 0.2762 and 1.684 and 2.97 and 1.874
[2]; clone #1296
  insulin-stimulated glucose uptake, PPARγ-null clone rescued with mutant mPPARγ (C313A): not when rescued with mutant mPPARγ (C313A)
[3]; [5]
  body composition: fat mass: reduced fat mass
  fluid retention (body composition): without fluid retention
[3]; [6]
  fat mass, Fig 2K, per mouse: 5.32 and 2.67 and 2.477 and 3.3 and 3.197 and 3.02 and 3.75 and 4.29 and 2.763 and 2.153 and 4.333 and 4.837 and 5.383 and 6.203
  free water, Fig 2K, per mouse: 2.353 and 2.46 and 2.333 and 2.08 and 2.14 and 2.517 and 2.187 and 2.62 and 2.42 and 2.197 and 2.23 and 2.307 and 2.467
  lean mass, Fig 2K, per mouse: 21.65 and 22.52 and 23.3767 and 19.74 and 20.2767 and 20.98 and 21.1733 and 22.3667 and 21.9633 and 21.94 and 20.5267 and 22.2733 and 21.2733 and 21.61
[3]; 40 mg/kg/day ip, HFHSD-fed mice, listed as 15kPGE2, in g (unit assumed)
  total water, Fig 2K, per mouse: 19.6733 and 20.4733 and 21.0367 and 17.8733 and 18.36 and 19.3 and 19.1267 and 20.5133 and 19.99 and 19.7467 and 18.65 and 20.1267 and 19.4833 and 19.7567

## Cc1[nH]c2nc(C(C)N3CCN(c4ccccc4)CC3)nn2c(=O)c1Cc1ccc(F)cc1 (stereo not drawn) [BPRPT0245]
hPTGR2; BPRPT0245 50 nM
  mode of inhibition (Lineweaver–Burk plot): competitive hPTGR2 inhibitor
hPTGR2; BPRPT0245 50 nM, 15-keto-PGE2(um) 0.01
  Lineweaver-Burk plot value, average (Figure 5H): 0.05189
hPTGR2; BPRPT0245 50 nM, 15-keto-PGE2(um) 0.0142857
  Lineweaver-Burk plot value, average (Figure 5H): 0.06506
hPTGR2; BPRPT0245 50 nM, 15-keto-PGE2(um) 0.02
  Lineweaver-Burk plot value, average (Figure 5H): 0.06763
hPTGR2; BPRPT0245 50 nM, 15-keto-PGE2(um) 0.025
  Lineweaver-Burk plot value, average (Figure 5H): 0.07832
hPTGR2; BPRPT0245 50 nM, 15-keto-PGE2(um) 0.0333333
  Lineweaver-Burk plot value, average (Figure 5H): 0.1063
hPTGR2; BPRPT0245 50 nM, 15-keto-PGE2(um) 0.05
  Lineweaver-Burk plot value, average (Figure 5H): 0.1377
hPTGR2; BPRPT0245 50 nM, 15-keto-PGE2(um) 0.1
  Lineweaver-Burk plot value, average (Figure 5H): 0.2333
hPTGR2; with BPRPT0245 50 nM
  Vmax (change on addition of inhibitor): remained unchanged
[1]; 100 mg/kg/day oral, HFHSD-fed mice, vs vehicle
  white fat mass and liver mass: significantly reduced
[1]; individual animals
  Inguinal fat weight (Figure 5N): 3.1135 and 2.4997 and 3.7598 and 1.225 and 2.118 and 3.7874 and 2.0547 and 1.3489 and 2.0692 and 1.6337
[1]; [7]
  BAT weight (Figure 5N): 0.1698 and 0.1291 and 0.2802 and 0.1132 and 0.1765 and 0.2813 and 0.0604 and 0.0923 and 0.1293
  Liver weight (Figure 5N): 1.4298 and 1.1221 and 1.8053 and 1.0426 and 1.3688 and 2.9793 and 1.3504 and 1.1836 and 1.2693 and 1.0805
  Mesenteric fat weight (Figure 5N): 1.0785 and 0.4119 and 1.0515 and 0.3617 and 0.4577 and 1.3111 and 0.5735 and 0.369 and 0.413 and 0.3561
  Perigonadal fat weight (Figure 5N): 2.771 and 2.393 and 3.067 and 1.288 and 2.096 and 2.817 and 2.396 and 1.58 and 2.043 and 2.048
[3]; [8]
  body composition: fat mass: marginally significantly reduced fat mass
  fluid retention (body composition): did not cause fluid retention
[3]; individual animals
  Fat mass (Figure 5O): 18.94 and 14.08 and 8.33 and 20.43 and 12.66 and 22.41 and 12.99 and 8.39 and 11.25 and 10.06
  Free fluid (Figure 5O): 3.62 and 3.13 and 2.31 and 3.61 and 2.85 and 4.07 and 3.08 and 2.76 and 3.02 and 2.68
  lean mass (Figure 5O): 26.38 and 24.44 and 20.16 and 22.44 and 28.07 and 22.14 and 23.04 and 23.87 and 21.38
[3]; [7]
  Total water (Figure 5O): 24.73 and 22.68 and 18.44 and 23.16 and 20.8 and 26.52 and 20.79 and 21.19 and 22.12 and 19.78

## CCCCCC(=O)CC[C@H]1[C@H](O)CC(=O)[C@@H]1C/C=C\CCCC(=O)O [13,14-dihydro-15-keto-PGE2]
wild-type mPPARγ; 1314dh-15kPGE2 5uM
  PPRE reporter activity, Fig 1M replicates: 0.8192 and 0.7939 and 0.9277
wild-type mPPARγ; 1314dh-15kPGE2 10uM
  PPRE reporter activity, Fig 1M replicates: 1.0416 and 0.7874 and 1.0502
[2]; 1314-dihydro-15kPGE2 5
  insulin-stimulated glucose uptake, Fig 1P right panel replicates: 1.243 and 2.598 and 0.703
